Test results taken from publication PMC9454270, “Peptidomimetic Small-Molecule Inhibitors of 3CLPro Activity and Spike–ACE2 Interaction: Toward Dual-Action Molecules against Coronavirus Infections” (The Journal of Organic Chemistry, 2022).
*1 amine or outer side, *2 acyl side, *3 side chain or, on linkers, in order; H or OH if unused. Where a SMILES comes first, the peptide text is derived from it. [ ]: non-standard residue; d: D form. X1 = O=C1CCN([*:1])CCN1[C@@H](Cc1ccccc1)C(=O)[*:2]

Columns and labels:
[1] = target: T1, 3CLPro enzyme, the main protease of SARS-CoV-2 (Severe acute respiratory syndrome coronavirus 2, UniProt P0DTD1); assay: biochemical; assay type: biochemical; conditions: for % In(3CLPro) at 100 μM: pH 7
T1 construct: 3CLPro enzyme, the main protease of SARS-CoV-2

[2] = system: SARS-CoV-2 infection; conditions: cited from earlier work
[3] = target: SARS-CoV-2 spike/ACE2 complex (RBD of Spike S protein binding to human receptor ACE2) (Severe acute respiratory syndrome coronavirus 2, UniProt P0DTC2); assay: biochemical; set-up: species or system SARS-CoV-2 / human

Compound: NC(=O)CC[C@H](NC(=O)[C@H](Cc1ccc(O)cc1)NC(=O)[C@H](Cc1ccccc1)N1CCN(C(=O)[C@H](CC(=O)O)NC(=O)[C@@H](N)CCC(=O)O)CC1=O)C(N)=O [compound 15, H-ED(4b)YQ-NH2]
- IC50 [1]: 15 µM
- % In(3CLPro) at 100 μM [1]: 90–91%

Compound: H-EDLFYQ-NH2 [EDLFYQ (SAP-6)]
- inhibition potency toward SARS-CoV-2 infection [2]: millimolar range

Compound: NC(=O)CC[C@H](NC(=O)[C@H](Cc1ccc(O)cc1)NC(=O)[C@H](Cc1ccccc1)N1CCN(C(=O)[C@H](CC(=O)O)NC(=O)[C@@H](N)CCC(=O)O)CCC1=O)C(N)=O [compound 16, H-ED(11b)YQ-NH2] (H-ED[X1]YQ-NH2)
- IC50 [1]: 127 µM
- % In(3CLPro) at 100 μM [1]: 45–57%
- % In(spike–ACE2) at 100 μM [3]: 66–76%
- IC50 [3]: 20 µM
